The text below walks through data of patent EP4667464A1 (Cyrus Therapeutics Inc., priority 2023, dated 2024).

In one test the target is T1, KRAS G12C::SOS1 (Homo sapiens, UniProt Q07889).
T1 construct: purchased CISBIO 64KRASG12PEH
T1 sequence (Q07889 1-1333): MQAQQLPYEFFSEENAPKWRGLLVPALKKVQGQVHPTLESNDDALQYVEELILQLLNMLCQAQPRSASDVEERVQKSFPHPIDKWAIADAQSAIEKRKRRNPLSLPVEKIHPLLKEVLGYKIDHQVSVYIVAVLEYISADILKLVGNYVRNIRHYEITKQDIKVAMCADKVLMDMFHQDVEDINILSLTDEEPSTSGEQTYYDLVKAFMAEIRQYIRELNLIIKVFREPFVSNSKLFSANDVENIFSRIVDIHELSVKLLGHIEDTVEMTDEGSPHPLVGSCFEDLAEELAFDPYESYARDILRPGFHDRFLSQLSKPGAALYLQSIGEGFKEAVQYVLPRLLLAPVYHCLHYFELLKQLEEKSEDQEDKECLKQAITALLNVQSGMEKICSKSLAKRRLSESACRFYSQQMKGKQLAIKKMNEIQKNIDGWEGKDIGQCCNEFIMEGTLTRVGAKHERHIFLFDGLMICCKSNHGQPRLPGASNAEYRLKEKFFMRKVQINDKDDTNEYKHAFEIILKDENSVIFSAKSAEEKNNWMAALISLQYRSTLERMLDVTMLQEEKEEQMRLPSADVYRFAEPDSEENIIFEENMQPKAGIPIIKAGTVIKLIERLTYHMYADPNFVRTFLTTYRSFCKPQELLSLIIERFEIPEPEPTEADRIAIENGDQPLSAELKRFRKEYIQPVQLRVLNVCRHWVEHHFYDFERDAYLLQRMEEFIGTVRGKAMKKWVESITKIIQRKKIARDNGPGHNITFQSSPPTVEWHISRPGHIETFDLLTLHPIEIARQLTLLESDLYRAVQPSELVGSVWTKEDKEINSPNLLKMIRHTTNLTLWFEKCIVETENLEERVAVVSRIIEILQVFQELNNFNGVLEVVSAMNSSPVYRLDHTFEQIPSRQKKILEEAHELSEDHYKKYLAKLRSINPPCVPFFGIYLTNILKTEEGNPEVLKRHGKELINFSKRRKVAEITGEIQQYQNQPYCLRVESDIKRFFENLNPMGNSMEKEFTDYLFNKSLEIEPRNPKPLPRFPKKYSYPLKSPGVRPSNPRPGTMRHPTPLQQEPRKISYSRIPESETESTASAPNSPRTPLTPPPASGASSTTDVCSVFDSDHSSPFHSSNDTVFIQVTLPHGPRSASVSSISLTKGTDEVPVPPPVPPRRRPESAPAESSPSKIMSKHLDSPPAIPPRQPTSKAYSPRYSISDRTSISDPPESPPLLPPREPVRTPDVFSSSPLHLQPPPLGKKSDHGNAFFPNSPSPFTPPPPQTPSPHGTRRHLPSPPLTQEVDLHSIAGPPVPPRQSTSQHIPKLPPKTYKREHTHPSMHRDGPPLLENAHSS
The test is described as follows: KRAS G12C::SOS1 protein-protein interaction (PPI) inhibition assay (HTRF). It counts as binding. The settings on record: 8 concentrations from 3 µM, three replicates; read-out: KRAS G12C::SOS1 PPI. The method, boiled down: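 Compounds, at eight 3-fold dilutions from 3 µM, were mixed with GTP-loaded Tag1-KRAS G12C, Tag2-SOS1 and a terbium-cryptate donor plus XL665 acceptor antibody pair. After 2 h at room temperature, time-resolved FRET reported the KRAS–SOS1 interaction.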
(In TR-FRET formats the signal depends on donor and acceptor labels being close together.)

For a further test, the target named is T2, SOS1 (Homo sapiens, UniProt Q07889).
T2 construct: HIS-SOS1cat (160 nM; Cytoskeleton, US); His (N); purchased Cytoskeleton
T2 sequence (Q07889 564-1049 limits assumed): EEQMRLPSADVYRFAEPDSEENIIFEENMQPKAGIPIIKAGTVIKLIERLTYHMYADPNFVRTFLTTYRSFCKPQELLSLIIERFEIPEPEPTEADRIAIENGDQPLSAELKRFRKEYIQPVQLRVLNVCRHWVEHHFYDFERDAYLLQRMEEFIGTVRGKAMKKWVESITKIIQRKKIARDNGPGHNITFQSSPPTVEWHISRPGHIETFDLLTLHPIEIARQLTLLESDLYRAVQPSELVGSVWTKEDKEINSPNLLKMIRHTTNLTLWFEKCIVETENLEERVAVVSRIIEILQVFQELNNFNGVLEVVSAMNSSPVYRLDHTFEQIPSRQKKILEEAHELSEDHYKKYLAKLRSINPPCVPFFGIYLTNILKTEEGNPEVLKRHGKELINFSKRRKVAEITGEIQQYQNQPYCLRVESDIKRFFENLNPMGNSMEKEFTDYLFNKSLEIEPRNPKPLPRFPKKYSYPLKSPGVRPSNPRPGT
The test is described as follows: SOS-catalyzed nucleotide exchange assay (HTRF, SOS1-mediated GTP loading of KRAS G12D). It counts as biochemical. Particulars: GST-KRAS G12D, HIS-SOS1cat, compound 128 pM to 10 µM; read-out: SOS-catalyzed nucleotide exchange assay.

For test [1], the system named is lung cancer cell line H358 having the KRAS G12S variant. Briefly: SynergyScreen combination efficacy (ATPlite 1Step cell viability). For orientation: ATP-based viability assays read luminescence as a measure of living cells.
Experimental: In order to measure cell viability, each well was treated with 24 µL of ATPlite 1Step™ (PerkinElmer) solution, then mixed for 2 minutes, and reacted by blocking light for 5 minutes, and then the luminescence signal was measured using an Envision multilabel reader (PerkinElmer).
Test [2] has as its system lung cancer cell line NCI-H358 having the KRAS G12C variant. Briefly: Cancer cell growth inhibition, 3D spheroids (CellTiter-Glo 3D). It counts as cell-based. The settings on record: Homo sapiens, NCI-H358, 120 h; 3D spheroids, 0.002-10 µM, 5 days; read-out: H358 cell viability. The method, boiled down: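 NCI-H358 (KRAS G12C) spheroids lysed with CellTiter-Glo 3D for 30 min with shaking after 10 min at room temperature. Growth in compound-treated wells expressed relative to untreated wells set to 100%.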

Molecules are shown by their SMILES.

In the case of `C[C@@H](NC(=O)c1ccc(=O)n(-c2cncc(-c3cnnn3C)c2)n1)c1cccc(C(F)(F)F)c1F` [Example 1-2, N-[(1R)-1-[2-fluoro-3-(trifluoromethyl)phenyl]ethyl]-1-[5-(3-methyltriazol-4-yl)-3-pyridyl]-6-oxo-pyridazine-3-carboxamide], the IC50 is 50 to 150 nM at KRAS G12C::SOS1, 50 to 150 nM at SOS1 and less than 1000 nM in test [2]. For the same compound, the “EFFECT20 (concentration that induces 20% cell death), applied as final treatment concentration” value in test [1] (culture time 72 h) was 1854 nM; in test [1] (culture time 120 h) it was 652 nM.

Consider `C[C@]12C=CC(=O)C=C1CC[C@@H]1[C@@H]2[C@@H](O)C[C@@]2(C)[C@H]1CC[C@]2(O)C(=O)CO` [prednisolone], for which the “Concentration (log M) Anticancer agent” value in test [1] (words printed in place of a concentration, culture time 72 h, with Ex. 1-2 log M -5.9) was “No Concentration -dependent change”.
